Experimental data as given in patent US10150760B2, “Compounds for use in preparing heterocyclic triazole agonists of the APJ receptor” (AMGEN INC., priority 2016, dated 2018).

Experiments:
[1] = target: human APJ receptor (Homo sapiens (Human), UniProt P35414); test: [35S]GTPγS binding assay on membranes from CHO cells stably expressing human APJ receptor; assay type: biochemical; details: read-out: Activity hAPJ SPA EC50 IP
Method in brief: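 Membranes from CHO cells stably expressing human APJ incubated with ligand, 0.2 nM [35S]GTPγS and WGA SPA beads in HEPES pH 7.5 with 5 mM MgCl2, 200 mM NaCl, 3 μM GDP, 90 min at RT. Nonspecific binding defined with 100 μM GTPγS; EC50 by non-linear regression.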

[2] = system: isolated perfused rat hearts; test: Ex vivo isolated perfused rat heart assay (Langendorff apparatus), load independent inotropic and lusitropic effects; design: species or system Sprague Dawley rat; details: ex vivo isolated perfused rat heart, percent change over vehicle; for Isolated Heart Assay dP/dtmax (%): contractility; for Isolated Heart Assay dP/dtmin (%): relaxation
Text: Evidence for Load Independent Inotropic Effects with APJ Agonists Using Ex Vivo Assay (Isolated Perfused Rat Hearts)
Naive Sprague Dawley® SD rats (Harlan laboratories (Livermore, Calif. USA)) were anaesthetized and hearts were excised followed by cannulation in the Langendorff apparatus (Harvard apparatus, Holliston, Mass. USA) via aorta. The heart was perfused retrograde with modified oxygenated Krebs-Henseleit buffer (Skrzypiec-Spring M et al., (2007) J. Pharmacol Toxicol Methods 55: 113-126). The pressure of the solution causes the aortic valve to shut and the perfusate is then forced into the ostium and the coronary vessels. This allows the heart to beat for several h. A balloon was inserted into the left ventricle (LV) to measure dP/dtmax (derivative of left ventricular pressure) as an index of cardiac contractility. The APJ agonist was perfused constantly in a dose dependent manner into the heart to examine cardiac contractility.
Example 49.0 was infused at different concentrations and load independent contractility was measured by index of LV dP/dtmax and the results are expressed as a percent change over vehicle. […] Example 49.0 was infused at different concentrations and load independent lusitropic effect (relaxation) was measured by index of LV dP/dtmin where results are expressed as percent change over vehicle. […] Example 60.0 was infused at different concentrations and load independent contractility was measured by index of LV dP/dtmax and the results are expressed as a percent change over vehicle. […] Example 60.0 was infused at different concentrations and load independent lusitropic effect (relaxation) was measured by index of LV dP/dtmin where results are expressed as percent change over vehicle.

Sequence of human APJ receptor (P35414 whole entry): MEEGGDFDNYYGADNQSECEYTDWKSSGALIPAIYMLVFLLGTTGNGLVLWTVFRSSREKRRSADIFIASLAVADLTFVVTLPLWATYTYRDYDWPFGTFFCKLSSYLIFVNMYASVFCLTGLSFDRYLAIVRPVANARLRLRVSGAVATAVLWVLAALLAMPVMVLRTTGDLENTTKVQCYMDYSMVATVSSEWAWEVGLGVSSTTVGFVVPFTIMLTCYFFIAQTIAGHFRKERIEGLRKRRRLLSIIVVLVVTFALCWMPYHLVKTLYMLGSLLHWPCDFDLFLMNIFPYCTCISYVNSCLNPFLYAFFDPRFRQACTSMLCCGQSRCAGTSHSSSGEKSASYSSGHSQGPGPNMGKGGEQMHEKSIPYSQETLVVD

Compound	EC50 [1]	Isolated Heart Assay dP/dtmax (%) [2]	Isolated Heart Assay dP/dtmin (%) [2]
COc1cccc(OC)c1-n1c(NS(=O)(=O)[C@@H](C)[C@H](C)c2ncc(Cl)cn2)nnc1[C@@H]1COCCO1 (single isomer, unassigned) [Example 40.0, (2S,3R)-3-(5-chloro-2-pyrimidinyl)-N-(4-(2,6-dimethoxyphenyl)-5-((2R)-1,4-dioxan-2-yl)-4H-1,2,4-triazol-3-yl)-2-butanesulfonamide or (2S,3R)-3-(5-chloro-2-pyrimidinyl)-N-(4-(2,6-dimethoxyphenyl)-5-((2S)-1,4-dioxan-2-yl)-4H-1,2,4-triazol-3-yl)-2-butanesulfonamide]	14 nM	No effect	No effect
COc1cccc(OC)c1-n1c(NS(=O)(=O)[C@@H](C)[C@H](C)c2ncc(Cl)cn2)nnc1[C@H]1CCCO1 (single isomer, unassigned) [Example 47.0, (2S,3R)-3-(5-chloro-2-pyrimidinyl)-N-(4-(2,6-dimethoxyphenyl)-5-((2S)-tetrahydro-2-furanyl)-4H-1,2,4-triazol-3-yl)-2-butanesulfonamide or (2S,3R)-3-(5-chloro-2-pyrimidinyl)-N-(4-(2,6-dimethoxyphenyl)-5-((2R)-tetrahydro-2-furanyl)-4H-1,2,4-triazol-3-yl)-2-butanesulfonamide]	0.72 nM	6.5%	1.0%
COc1cccc(OC)c1-n1c(NS(=O)(=O)[C@@H](C)[C@H](C)c2ncc(C)cn2)nnc1[C@H]1CCCO1 (single isomer, unassigned) [Example 50.0, (2S,3R)-N-(4-(2,6-dimethoxyphenyl)-5-((S)-tetrahydrofuran-2-yl)-4H-1,2,4-triazol-3-yl)-3-(5-methylpyrimidin-2-yl)butane-2-sulfonamide or (2S,3R)-N-(4-(2,6-dimethoxyphenyl)-5-((R)-tetrahydrofuran-2-yl)-4H-1,2,4-triazol-3-yl)-3-(5-methylpyrimidin-2-yl)butane-2-sulfonamide]	28 nM	2.0%	No effect
COc1cccc(OC)c1-n1c(NS(=O)(=O)[C@@H](C)[C@H](OC)c2ncc(Cl)cn2)nnc1[C@H]1CCCO1 (single isomer, unassigned) [Example 51.0, (1R,2S)-1-(5-chloropyrimidin-2-yl)-N-(4-(2,6-dimethoxyphenyl)-5-((R)-tetrahydrofuran-2-yl)-4H-1,2,4-triazol-3-yl)-1-methoxypropane-2-sulfonamide or (1R,2S)-1-(5-chloropyrimidin-2-yl)-N-(4-(2,6-dimethoxyphenyl)-5-((S)-tetrahydrofuran-2-yl)-4H-1,2,4-triazol-3-yl)-1-methoxypropane-2-sulfonamide]	0.59 nM	No effect	No effect
COc1cccc(OC)c1-n1c(NS(=O)(=O)[C@@H](C)[C@H](C)c2ncc(Cl)cn2)nnc1[C@H]1CCCO1 (single isomer, unassigned) [Example 53.0, (2S,3R)-3-(5-chloro-2-pyrimidinyl)-N-(4-(2,6-dimethoxyphenyl)-5-((2S)-tetrahydro-2-furanyl)-4H-1,2,4-triazol-3-yl)-2-butanesulfonamide or (2S,3R)-3-(5-chloro-2-pyrimidinyl)-N-(4-(2,6-dimethoxyphenyl)-5-((2R)-tetrahydro-2-furanyl)-4H-1,2,4-triazol-3-yl)-2-butanesulfonamide]	13 nM	14.0%	12.4%
(2S,3R)-N-(4-(2,6-difluorophenyl)-5-((3S)-tetrahydro-2H-pyran-3-yl)-4H-1,2,4-triazol-3-yl)-3-(5-methyl-2-pyrimidinyl)-2-butanesulfonamide or (2S,3R)-N-(4-(2,6-difluorophenyl)-5-((3R)-tetrahydro-2H-pyran-3-yl)-4H-1,2,4-triazol-3-yl)-3-(5-methyl-2-pyrimidinyl)-2-butanesulfonamide [Example 23.0]	110 nM		
(2S,3R)-N-(4-(2,6-dimethoxyphenyl)-5-((R)-1,1-dioxidotetahydrothiophen-3-yl)-4H-1,2,4-triazol-3-yl)-3-(5-methylpyrimidin-2-yl)butane-2-sulfonamide or (2S,3R)-N-(4-(2,6-dimethoxyphenyl)-5-((S)-1,1-dioxidotetrahydrothiophen-3-yl)-4H-1,2,4-triazol-3-yl)-3-(5-methylpyrimidin-2-yl)butane-2-sulfonamide [Example 184.0]	1380 nM		
(2S,3R)-N-(4-(2,6-dimethoxyphenyl)-5-((R)-1,1-dioxidotetrahydrothiophen-3-yl)-4H-1,2,4-triazol-3-yl)-3-(5-methylpyrimidin-2-yl)butane-2-sulfonamide or (2S,3R)-N-(4-(2,6-dimethoxyphenyl)-5-((S)-1,1-dioxidotetrahydrothiophen-3-yl)-4H-1,2,4-triazol-3-yl)-3-(5-methylpyrimidin-2-yl)butane-2-sulfonamide [Example 183.0]	1060 nM		
(2S,3R)-N-(4-(2,6-dimethoxyphenyl)-5-((R)-1,4-dioxan-2-yl)-4H-1,2,4-triazol-3-yl)-3-(5-methoxypyrazin-2-yl)butane-2-sulfonamide or (2S,3R)-N-(4-(2,6-dimethoxyphenyl)-5-((S)-1,4-dioxan-2-yl)-4H-1,2,4-triazol-3-yl)-3-(5-methoxypyrazin-2-yl)butane-2-sulfonamide [Example 207.0]	4.8 nM		
(2S,3R)-N-(4-(2,6-dimethoxyphenyl)-5-((R)-1,4-dioxan-2-yl)-4H-1,2,4-triazol-3-yl)-3-(5-methoxypyrazin-2-yl)butane-2-sulfonamide or (2S,3R)-N-(4-(2,6-dimethoxyphenyl)-5-((S)-1,4-dioxan-2-yl)-4H-1,2,4-triazol-3-yl)-3-(5-methoxypyrazin-2-yl)butane-2-sulfonamide [Example 208.0]	20 nM		
(2S,3R)-N-(4-(2,6-dimethoxyphenyl)-5-((R)-1,4-dioxan-2-yl)-4H-1,2,4-triazol-3-yl)-3-(5-methylpyrimidin-2-yl)butane-2-sulfonamide or (2S,3R)-N-(4-(2,6-dimethoxyphenyl)-5-((S)-1,4-dioxan-2-yl)-4H-1,2,4-triazol-3-yl)-3-(5-methylpyrimidin-2-yl)butane-2-sulfonamide [Example 205.0]	19 nM		
(2S,3R)-N-(4-(2,6-dimethoxyphenyl)-5-((S)-tetrahydrothiophen-2-yl)-4H-1,2,4-triazol-3-yl)-3-(5-methylpyrimidin-2-yl)butane-2-sulfonamide or (2S,3R)-N-(4-(2,6-dimethoxyphenyl)-5-((R)-tetrahydrothiophen-2-yl)-4H-1,2,4-triazol-3-yl)-3-(5-methylpyrimidin-2-yl)butane-2-sulfonamide [Example 223.0]	12 nM		
(2S,3R)-N-(4-(2,6-dimethoxyphenyl)-5-((S)-tetrahydrothiophen-2-yl)-4H-1,2,4-triazol-3-yl)-3-(5-methylpyrimidin-2-yl)butane-2-sulfonamide or (2S,3R)-N-(4-(2,6-dimethoxyphenyl)-5-((R)-tetrahydrothiophen-2-yl)-4H-1,2,4-triazol-3-yl)-3-(5-methylpyrimidin-2-yl)butane-2-sulfonamide [Example 224.0]	1.5 nM		
(2S,3R)-N-(4-((1r,2R,6S)-2,6-dimethoxycyclohexyl)-5-((3S)-tetrahydro-3-furanyl)-4H-1,2,4-triazol-3-yl)-3-(5-methyl-2-pyrimidinyl)-2-butanesulfonamide or (2S,3R)-N-(4-((1r,2R,6S)-2,6-dimethoxycyclohexyl)-5-((3R)-tetrahydro-3-furanyl)-4H-1,2,4-triazol-3-yl)-3-(5-methyl-2-pyrimidinyl)-2-butanesulfonamide [Example 4.0]	890 nM		
(2S,3R)-N-(4-((1r,2R,6S)-2,6-dimethoxycyclohexyl)-5-((3S)-tetrahydro-3-furanyl)-4H-1,2,4-triazol-3-yl)-3-(5-methyl-2-pyrimidinyl)-2-butanesulfonamide or (2S,3R)-N-(4-((1r,2R,6S)-2,6-dimethoxycyclohexyl)-5-((3R)-tetrahydro-3-furanyl)-4H-1,2,4-triazol-3-yl)-3-(5-methyl-2-pyrimidinyl)-2-butanesulfonamide [Example 5.0]	> 4200 nM		
((2S,3R)-N-(4-(2,6-dimethoxyphenyl)-5-((R)-1,4-dioxan-2-yl)-4H-1,2,4-triazol-3-yl)-3-(5-methylpyrimidin-2-yl)butane-2-sulfonamide or (2S,3R)-N-(4-(2,6-dimethoxyphenyl)-5-((S)-1,4-dioxan-2-yl)-4H-1,2,4-triazol-3-yl)-3-(5-methylpyrimidin-2-yl)butane-2-sulfonamide [Example 206.0]	35 nM		
